{"source": "patent US12427134B2", "about": "“Methods of reducing the risk of cardiovascular events in a subject with atrial fibrillation and/or atrial flutter” (priority 2019, dated 2025)", "key": {"[1]": {"system": "hypertriglyceridemic patients with cardiovascular disease or at high risk for cardiovascular disease", "conditions": "human, in vivo"}, "[2]": {"system": "hypertriglyceridemic patients with cardiovascular disease or at high risk for cardiovascular disease", "experiment": "REDUCE-IT: primary and key secondary endpoints adjusted for baseline covariates (stepwise selection) and time varying post-baseline lipids", "assay_type": "in vivo, human", "conditions": "ITT", "experimental": "The primary efficacy analysis was performed on the ITT population. A sensitivity analysis was performed using the mITT and PP populations. As a sensitivity analysis, patients who discontinued study drug prematurely were censored for the primary composite endpoint analysis on the date of drug discontinuation. The primary analysis was repeated using this censoring rule for the mITT population. As a supportive analysis, a multivariable, stratified Cox proportional hazards model was constructed for the primary endpoint to evaluate the treatment effect adjusting for important covariates.\nAs an additional exploratory analysis, the relationship between post-baseline biomarker values and treatment effects with the primary and key secondary endpoints were assessed by adding biomarker values (for example, at 4 months, or at 1 year, etc.) as time-dependent covariates in the Cox proportional hazards model. Diagnostic plots for the proportional hazard's assumption was evaluated. Weight was measured at the screening visit and at all follow-up visits, including the last visit of the study. Waist circumference was measured at the randomization visit (Visit 2; Day 0), Visit 5 (Day 720) and the last visit of the study. Descriptive statistics were presented by visit and treatment group for baseline, post-treatment change from baseline, and the percent change from baseline. Analysis methods for repeated measurements were used to compare percent change from baseline between treatments.\nIn the main analysis of the primary endpoint for the REDUCE-IT trial, treatment was the only covariate employed in the stratified Cox proportional hazards model. Stratification variables included CV risk category at baseline (primary prevention cohort and secondary prevention cohort), use of ezetimibe at baseline (yes/no), and geographical region (Westernized, Eastern European, and Asia Pacific).\nThe model included treatment and any of the following variables, identified by a stepwise selection procedure: (1) sex; (2) age at baseline (<65 or ≥65 years); (3) race (white and non-white); (4) presence/absence of diabetes at baseline; (5) baseline LDL-C (by tertile); (6) baseline HDL-C (by tertile); (7) baseline non-HDL-C (by tertile); (8) baseline TG (by tertile); (9) baseline hsCRP (≤3 mg/Land >3 mg/L); (10) baseline apo B (by tertile); (11) baseline RLP-C (by tertile); (12) Hopkins calculated LDL-C at baseline (by tertile); (13) waist/height ratio at baseline; (14) waist circumference at baseline.\nThe SAS proportional hazard regression procedure was used to automatically conduct the stepwise selection of the important baseline covariates. The minimum p-value for the inclusion of the baseline covariate into the proportional hazard model was 0.05, and these selected baseline covariates with p<0.10 would remain in the final model as important baseline covariates after all baseline covariates were evaluated by the model. The HR, 95% CI, and p-value comparing the two treatment groups, and the HR, 95% CI, and p-value for adjusting each selected important baseline covariate in the final model were presented.\nAs an additional exploratory analysis, the relationships between post-baseline lipid values and treatment effects with the primary and key secondary endpoints were assessed by adding lipid values (at 4 months, 1 year, etc.) as time varying covariates in the Cox proportional hazards model. Diagnostic plots for the proportional hazard's assumption was evaluated."}, "[3]": {"conditions": "Overall (with all selected covariates)"}, "[4]": {"conditions": "adjusting baseline covariate: Age at baseline (<65 or ≥65 years)"}, "[5]": {"conditions": "adjusting baseline covariate: Baseline hsCRP (≤3 mg/L or >3 mg/L)"}, "[6]": {"conditions": "adjusting baseline covariate: Baseline non-HDL-C (by tertile)"}, "[7]": {"conditions": "adjusting baseline covariate: Presence/absence of diabetes at baseline"}, "[8]": {"conditions": "adjusting baseline covariate: Sex"}, "[9]": {"conditions": "adjusting time varying covariate HDL-C (mg/dL)"}, "[10]": {"conditions": "adjusting time varying covariate LDL-C (Hopkins) (mg/dL)"}, "[11]": {"conditions": "adjusting time varying covariate LDL-C (ultracentrifugation) (mg/dL)"}, "[12]": {"conditions": "adjusting time varying covariate LDL-C derived (mg/dL)"}, "[13]": {"conditions": "adjusting time varying covariate RLP-C (mg/dL)"}, "[14]": {"conditions": "adjusting time varying covariate TG (mg/dL)"}, "[15]": {"conditions": "adjusting time varying covariate apo B (mg/dL)"}, "[16]": {"conditions": "adjusting time varying covariate hsCRP (mg/dL)"}}, "note": "Read-outs that look alike come from different tables or passages of the source.", "data": [{"compound": "CC/C=C\\C/C=C\\C/C=C\\C/C=C\\C/C=C\\CCCC(=O)OCC", "note": "[AMR101, eicosapentaenoic acid ethyl ester]", "values": [{"measurement": "TEAE: Infections and infestations, %", "setting": "[1]; female", "result": "(48.9) %"}, {"measurement": "SAE class infections and infestations, patients", "setting": "[1]", "result": 8.1, "unit": "%"}, {"measurement": "Serious adverse event - Infections and infestations (SOC), % patients", "setting": "[1]", "result": "(8.1) %"}, {"measurement": "Serious adverse event - Infections and infestations (SOC), n patients", "setting": "[1]", "result": 332}, {"measurement": "Serious adverse event - Sepsis, % patients", "setting": "[1]", "result": "(0.6) %"}, {"measurement": "Serious adverse event - Sepsis, n patients", "setting": "[1]", "result": 25}, {"measurement": "Serious adverse event - Urinary tract infection, % patients", "setting": "[1]", "result": "(0.6) %"}, {"measurement": "Serious adverse event - Urinary tract infection, n patients", "setting": "[1]", "result": 25}, {"measurement": "Severe TEAE class infections and infestations, patients", "setting": "[1]", "result": 5.1, "unit": "%"}, {"measurement": "Severe TEAE: Infections and infestations, %", "setting": "[1]", "result": "(5.1) %"}, {"measurement": "Severe TEAE: Sepsis, %", "setting": "[1]", "result": "(0.5) %"}, {"measurement": "Severe TEAE: Urinary tract infection, %", "setting": "[1]", "result": "(0.3) %"}, {"measurement": "TEAE class infections and infestations, patients", "setting": "[1]", "result": 44.6, "unit": "%"}, {"measurement": "TEAE: Upper respiratory tract infection, %", "setting": "[1]", "result": "(7.6) %"}, {"measurement": "TEAE: Urinary tract infection, %", "setting": "[1]", "result": "(6.2) %"}, {"measurement": "TEAE: Infections and infestations, %", "setting": "[1]; male", "result": "(42.8) %"}, {"measurement": "Time to key secondary endpoint, HR (95% CI) AMR101/Placebo", "setting": "[2]; [3]", "result": "0.730 (0.647-0.825)"}, {"measurement": "Time to primary endpoint, HR (95% CI) AMR101/Placebo", "setting": "[2]; [3]", "result": "0.750 (0.680-0.828)"}, {"measurement": "Time to key secondary endpoint, HR (95% CI) AMR101/Placebo", "setting": "[2]; [4]", "result": "0.739 (0.654-0.834)"}, {"measurement": "Time to primary endpoint, HR (95% CI) AMR101/Placebo", "setting": "[2]; [4]", "result": "0.755 (0.684-0.833)"}, {"measurement": "Time to key secondary endpoint, HR (95% CI) AMR101/Placebo", "setting": "[2]; [5]", "result": "0.731 (0.648-0.826)"}, {"measurement": "Time to primary endpoint, HR (95% CI) AMR101/Placebo", "setting": "[2]; [5]", "result": "0.750 (0.679-0.828)"}, {"measurement": "Time to key secondary endpoint, HR (95% CI) AMR101/Placebo", "setting": "[2]; [6]", "result": "0.738 (0.654-0.833)"}, {"measurement": "Time to primary endpoint, HR (95% CI) AMR101/Placebo", "setting": "[2]; [6]", "result": "0.755 (0.684-0.833)"}, {"measurement": "Time to key secondary endpoint, HR (95% CI) AMR101/Placebo", "setting": "[2]; [7]", "result": "0.731 (0.647-0.825)"}, {"measurement": "Time to primary endpoint, HR (95% CI) AMR101/Placebo", "setting": "[2]; [7]", "result": "0.750 (0.679-0.827)"}, {"measurement": "Time to key secondary endpoint, HR (95% CI) AMR101/Placebo", "setting": "[2]; [8]", "result": "0.734 (0.650-0.829)"}, {"measurement": "Time to primary endpoint, HR (95% CI) AMR101/Placebo", "setting": "[2]; [8]", "result": "0.751 (0.680-0.829)"}, {"measurement": "Time to key secondary endpoint, HR (95% CI) for Treatment (AMR101 vs Placebo)", "setting": "[2]; [9]", "result": "0.710 (0.629-0.802)"}, {"measurement": "Time to primary endpoint, HR (95% CI) for Treatment (AMR101 vs Placebo)", "setting": "[2]; [9]", "result": "0.730 (0.661-0.806)"}, {"measurement": "Time to primary endpoint, HR (95% CI) for Treatment (AMR101 vs Placebo)", "setting": "[2]; adjusting time varying covariate LDL-C (Friedewald) (mg/dL)", "result": "0.760 (0.688-0.839)"}, {"measurement": "Time to key secondary endpoint, HR (95% CI) for Treatment (AMR101 vs Placebo)", "setting": "[2]; [10]", "result": "0.761 (0.674-0.860)"}, {"measurement": "Time to primary endpoint, HR (95% CI) for Treatment (AMR101 vs Placebo)", "setting": "[2]; [10]", "result": "0.772 (0.699-0.852)"}, {"measurement": "Time to key secondary endpoint, HR (95% CI) for Treatment (AMR101 vs Placebo)", "setting": "[2]; [11]", "result": "0.737 (0.652-0.834)"}, {"measurement": "Time to primary endpoint, HR (95% CI) for Treatment (AMR101 vs Placebo)", "setting": "[2]; [11]", "result": "0.759 (0.687-0.839)"}, {"measurement": "Time to key secondary endpoint, HR (95% CI) for Treatment (AMR101 vs Placebo)", "setting": "[2]; [12]", "result": "0.740 (0.655-0.836)"}, {"measurement": "Time to primary endpoint, HR (95% CI) for Treatment (AMR101 vs Placebo)", "setting": "[2]; [12]", "result": "0.752 (0.681-0.830)"}, {"measurement": "Time to key secondary endpoint, HR (95% CI) for Treatment (AMR101 vs Placebo)", "setting": "[2]; [13]", "result": "0.768 (0.679-0.867)"}, {"measurement": "Time to primary endpoint, HR (95% CI) for Treatment (AMR101 vs Placebo)", "setting": "[2]; [13]", "result": "0.784 (0.709-0.866)"}, {"measurement": "Time to key secondary endpoint, HR (95% CI) for Treatment (AMR101 vs Placebo)", "setting": "[2]; [14]", "result": "0.754 (0.668-0.851)"}, {"measurement": "Time to primary endpoint, HR (95% CI) for Treatment (AMR101 vs Placebo)", "setting": "[2]; [14]", "result": "0.772 (0.700-0.853)"}, {"measurement": "Time to key secondary endpoint, HR (95% CI) for Treatment (AMR101 vs Placebo)", "setting": "[2]; [15]", "result": "0.752 (0.665-0.850)"}, {"measurement": "Time to primary endpoint, HR (95% CI) for Treatment (AMR101 vs Placebo)", "setting": "[2]; [15]", "result": "0.762 (0.690-0.842)"}, {"measurement": "Time to key secondary endpoint, HR (95% CI) for Treatment (AMR101 vs Placebo)", "setting": "[2]; [16]", "result": "0.745 (0.660-0.841)"}, {"measurement": "Time to primary endpoint, HR (95% CI) for Treatment (AMR101 vs Placebo)", "setting": "[2]; [16]", "result": "0.758 (0.686-0.836)"}, {"measurement": "Time to key secondary endpoint, HR (95% CI) for Treatment (AMR101 vs Placebo)", "setting": "[2]; adjusting time varying covariate non-HDL-C (mg/dL)", "result": "0.773 (0.684-0.874)"}]}]}
